According to publication PMC12030706, “Novel ^177Lu-Labeled [Thz^14]Bombesin(6–14) Derivatives with Low Pancreas Accumulation for Targeting Gastrin-Releasing Peptide Receptor-Expressing Cancer” (Pharmaceuticals, 2025):

Experiments:
[1] = LogD7.4 measurement, shake flask method; assay type: physicochemical; details: n-octanol/DPBS pH 7.4, n = 3
Protocol: The logD7.4 values of all the ^177Lu-labeled GRPR-targeted ligands were measured using the shake flask method as previously reported. An aliquot (~2 MBq) of the radiolabeled product was added to a mixture of n-octanol (3 mL) and DPBS (3 mL, pH 7.4), followed by 1 min vortexing and 15 min centrifugation at 5000 rpm. Samples of the n-octanol (1 mL) and buffer (1 mL) layers were collected, and the activity was counted using a gamma counter. The logD7.4 values were calculated using the following equation: logD7.4=log10[countsn−octanolphase/countsbutterphase]

[2] = Ex vivo biodistribution in PC-3 tumor-bearing mice; details: mouse; for tissue uptake at 4 h: 4 h post-injection; for tissue uptake at 24 h: 24 h post-injection; for tissue uptake at 72 h: 72 h post-injection; for tissue uptake at 120 h: 120 h post-injection
Protocol: SPECT/CT imaging experiments were performed using an MILabs (Houten, The Netherlands) U-SPECT-II/CT scanner with a custom-made ultra-high-sensitivity big mouse collimator (2 mm pinhole size) following previously reported procedures. […] Male NOD.Cg-Rag1^tm1Mom Il2rg^tm1Wjl/SzJ (NRG) mice were used in these experiments because of their immunodeficient characteristics and excellent radiation tolerance. Mice were anaesthetized and subcutaneously implanted with 5 × 10^6 PC-3 prostate cancer cells (100 µL; 1:1 PBS/Matrigel) behind the left shoulder. SPECT/CT imaging and biodistribution studies were performed once the tumors reached a diameter of 5–8 mm, typically after approximately 4 weeks of growth.
For ex vivo biodistribution studies, the mice were injected with ~2–6 MBq of the radioligand. […] Blocking study was conducted at 1 h post-injection via co-injection of the radioligand with 100 μg of [D-Phe^6,Leu-NHEt^13,des-Met^14]Bombesin(6–14). Organs/tissues of interested were collected, weighed, and measured using an automatic gamma counter.

[3] = PC-3 tumor, Uptake in PC-3 tumor
[4] = adrenal glands, Uptake in adrenal glands

Molecule `CC(C)C[C@@H](CN1CSC[C@H]1C(N)=O)NC(=O)[C@H](Cc1cnc[nH]1)NC(=O)CN(C)C(=O)[C@@H](NC(=O)[C@H](C)NC(=O)[C@H](Cc1c[nH]c2ccccc12)NC(=O)[C@H](CCC(N)=O)NC(=O)[C@@H](Cc1ccccc1)NC(=O)CN1CCC(NC(=O)CN2CCN(CC(=O)O)CCN(CC(=O)O)CCN(CC(=O)O)CC2)CC1)C(C)C` [[^177Lu]Lu-TacsBOMB5, metal not drawn] has a logD [1] of -2.53 ± 0.2, a tissue uptake at 1 h ([2]; PC-3 tumor, 100 ug, Uptake in PC-3 tumor, 1 h blocked (co-injected with 100 µg [D-Phe6,Leu-NHEt13,des-Met14]Bombesin(6-14))) of 2.53 ± 0.34 %ID/g and a tissue uptake at 1 h ([2]; PC-3 tumor, Uptake in PC-3 tumor, 1 h post-injection) of 8.71 ± 0.53 %ID/g. For the same molecule, the tissue uptake at 4 h [2, 3] was 4.8 ± 0.32 %ID/g, the tissue uptake at 24 h [2, 3] was 1.77 ± 0.27 %ID/g and the tissue uptake at 72 h [2, 3] was 1.09 ± 0.19 %ID/g. The tissue uptake at 120 h [2, 3] was less than 1 %ID/g, the tissue uptake at 1 h ([2]; adrenal glands, 100 ug, Uptake in adrenal glands, 1 h blocked (co-injected with 100 µg [D-Phe6,Leu-NHEt13,des-Met14]Bombesin(6-14))) was 0.17 ± 0.04 %ID/g and the tissue uptake at 1 h ([2]; adrenal glands, Uptake in adrenal glands, 1 h post-injection) was 0.61 ± 0.28 %ID/g. For the same molecule, the tissue uptake at 4 h [2, 4] was 0.29 ± 0.07 %ID/g, the tissue uptake at 24 h [2, 4] was 0.17 ± 0.02 %ID/g and the tissue uptake at 72 h [2, 4] was 0.18 ± 0.12 %ID/g. It also gave a tissue uptake at 120 h [2, 4] of 0.12 ± 0.08 %ID/g, a tissue uptake at 1 h ([2]; blood, 100 ug, Uptake in blood, 1 h blocked (co-injected with 100 µg [D-Phe6,Leu-NHEt13,des-Met14]Bombesin(6-14))) of 0.45 ± 0.11 %ID/g and a tissue uptake at 1 h ([2]; blood, Uptake in blood, 1 h post-injection) of 1.77 ± 0.14 %ID/g. The tissue uptake at 24 h ([2]; blood, Uptake in blood) was 0.21 ± 0.02 %ID/g, the tissue uptake at 72 h ([2]; blood, Uptake in blood) was 0.07 ± 0.01 %ID/g and the tissue uptake at 1 h ([2]; bone, 100 ug, Uptake in bone, 1 h blocked (co-injected with 100 µg [D-Phe6,Leu-NHEt13,des-Met14]Bombesin(6-14))) was 0.06 ± 0.03 %ID/g. It also gave a tissue uptake at 1 h ([2]; bone, Uptake in bone, 1 h post-injection) of 0.12 ± 0.02 %ID/g, a tissue uptake at 4 h ([2]; bone, Uptake in bone) of 0.09 ± 0.03 %ID/g and a tissue uptake at 24 h ([2]; bone, Uptake in bone) of 0.07 ± 0.02 %ID/g. For the same molecule, the tissue uptake at 72 h ([2]; bone, Uptake in bone) was 0.07 ± 0.01 %ID/g, the tissue uptake at 120 h ([2]; bone, Uptake in bone) was 0.07 ± 0.01 %ID/g and the tissue uptake at 1 h ([2]; brain, 100 ug, Uptake in brain, 1 h blocked (co-injected with 100 µg [D-Phe6,Leu-NHEt13,des-Met14]Bombesin(6-14))) was 0.02 %ID/g. The tissue uptake at 1 h ([2]; brain, Uptake in brain, 1 h post-injection) was 0.04 %ID/g, the tissue uptake at 4 h ([2]; brain, Uptake in brain) was 0.02 %ID/g and the tissue uptake at 1 h ([2]; fat, 100 ug, Uptake in fat, 1 h blocked (co-injected with 100 µg [D-Phe6,Leu-NHEt13,des-Met14]Bombesin(6-14))) was 0.06 ± 0.01 %ID/g. The tissue uptake at 1 h ([2]; fat, Uptake in fat, 1 h post-injection) was 0.15 ± 0.04 %ID/g, the tissue uptake at 4 h ([2]; fat, Uptake in fat) was 0.06 ± 0.01 %ID/g and the tissue uptake at 72 h ([2]; fat, Uptake in fat) was 0.02 ± 0.01 %ID/g. It also gave a tissue uptake at 120 h ([2]; fat, Uptake in fat) of 0.01 ± 0.01 %ID/g, a tissue uptake at 1 h ([2]; heart, 100 ug, Uptake in heart, 1 h blocked (co-injected with 100 µg [D-Phe6,Leu-NHEt13,des-Met14]Bombesin(6-14))) of 0.15 ± 0.02 %ID/g and a tissue uptake at 1 h ([2]; heart, Uptake in heart, 1 h post-injection) of 0.45 ± 0.06 %ID/g. It also gave a tissue uptake at 4 h ([2]; heart, Uptake in heart) of 0.21 ± 0.03 %ID/g, a tissue uptake at 24 h ([2]; heart, Uptake in heart) of 0.09 ± 0.01 %ID/g and a tissue uptake at 72 h ([2]; heart, Uptake in heart) of 0.05 ± 0.01 %ID/g. It also gave a tissue uptake at 120 h ([2]; heart, Uptake in heart) of 0.04 ± 0.01 %ID/g, a tissue uptake at 4 h ([2]; in vivo, Uptake in blood) of 0.85 ± 0.03 %ID/g and a tissue uptake at 24 h ([2]; in vivo, Uptake in pancreas) of 0.08 ± 0.02 %ID/g. For the same molecule, the tissue uptake at 72 h ([2]; in vivo, Uptake in testes) was 0.08 ± 0.04 %ID/g, the tissue uptake at 120 h ([2]; in vivo, Uptake in testes) was 0.08 ± 0.02 %ID/g and the tissue uptake at 1 h ([2]; kidneys, 100 ug, Uptake in kidneys, 1 h blocked (co-injected with 100 µg [D-Phe6,Leu-NHEt13,des-Met14]Bombesin(6-14))) was 2.78 ± 0.51 %ID/g. The tissue uptake at 1 h ([2]; kidneys, Uptake in kidneys, 1 h post-injection) was 3.47 ± 0.29 %ID/g, the tissue uptake at 4 h ([2]; kidneys, Uptake in kidneys) was 3.1 ± 0.35 %ID/g and the tissue uptake at 24 h ([2]; kidneys, Uptake in kidneys) was 1.38 ± 0.18 %ID/g.
